Test results reported in article PMC10544195, “Identification of novel SCD1 inhibitor alleviates nonalcoholic fatty liver disease: critical role of liver-adipose axis” (Cell Communication and Signaling : CCS, 2023).

System: T1, SCD1
T1 construct: IC50 assay and protein source not described; activity elsewhere measured in mouse OP9 and AML12 cells (native enzyme)
Assay: SCD1 inhibition, assay not described
Format: cell-based
Details: assay system not stated

| IC50 [nM] | Structure (SMILES) |
| --- | --- |
| 2800 | CNC(=O)c1cccc(NC(=O)N2CCC(Oc3ccccc3Cl)CC2)c1 [A939572] |
| 980 | c1cc(-c2nc3ccc(OCCCN4CCCC4)cc3o2)ccc1OCCCN1CCCC1 [E6446] |
